From patent publication US9365494B2, “Process for synthesis of amino-methyl tetralin derivatives” (Roche Palo Alto LLC, priority 2008, dated 2016) come the findings set out here.

The target in series [1] is T1, recombinant human 5-HT6 receptor (Homo sapiens, UniProt P50406).
T1 construct: expressed in transfected cells; membranes)
Put plainly: Radioligand binding studies, 5-HT6 ligand affinity by competing for binding of [3H]LSD. To be noted: [3H]LSD competition; membranes of HEK293 cells stably expressing the receptor; pH 7.4, 37° C., 75 min; duplicate determinations; read-out: pKi for 5-HT6 (converted). The method, then: The binding activity of compounds of this invention in vitro was determined as follows. Duplicate determinations of 5-HT6 ligand affinity were made by competing for binding of [^3H]LSD in cell membranes derived from HEK293 cells stably expressing recombinant human 5-HT6 receptor. Duplicate determinations of 5-HT2A ligand affinity were made by competing for binding of [^3H]Ketanserin (3-(2-(4-(4-fluorobenzoyl)piperidinol)ethyl)-2,4(1H,3H)-quinazolinedione) in cell membranes derived from CHO-K1 cells stably expressing recombinant human 5-HT2A receptor. Membranes were prepared from HEK 293 cell lines by the method described by Monsma et al., Molecular Pharmacology, Vol. 43 pp. 320-327 (1993), and from CHO-K^1 cell lines as described by Bonhaus et al., Br J. Pharmacol. June; 115(4):622-8 (1995).
For estimation of affinity at the 5-HT6 receptor, all determinations were made in assay buffer containing 50 mM Tris-HCl, 10 mM MgSO4, 0.5 mM EDTA, 1 mM ascorbic acid, pH 7.4 at 37° C., in a 250 microliter reaction volume. For estimation of affinity at the 5-HT2A receptor all determinations were made in assay buffer containing 50 mM Tris-HCl, 5 mM ascorbic acid, 4 mM CaCl2, pH 7.4 at 32° C., in a 250 microliter reaction volume.
Assay tubes containing [^3H] LSD or [^3H]Ketanserin (5 nM), competing ligand, and membrane were incubated in a shaking water bath for 75 min. at 37° C. (for 5-HT6) or 60 min. at 32° C. (for 5-HT2A), filtered onto Packard GF-B plates (pre-soaked with 0.3% PEI) using a Packard 96 well cell harvester and washed 3 times in ice cold 50 mM Tris-HCl. Bound [^3H] LSD or [^3H]Ketanserin were determined as radioactive counts per minute using Packard TopCount.
Displacement of [^3H]LSD or [^3H]Ketanserin from the binding sites was quantified by fitting concentration-binding data to a 4-parameter logistic equation:
[formula] where Hill is the Hill slope, [ligand] is the concentration of competing radioligand and IC50 is the concentration of radioligand producing half-maximal specific binding of radioligand. […]

T1 sequence (P50406 whole entry): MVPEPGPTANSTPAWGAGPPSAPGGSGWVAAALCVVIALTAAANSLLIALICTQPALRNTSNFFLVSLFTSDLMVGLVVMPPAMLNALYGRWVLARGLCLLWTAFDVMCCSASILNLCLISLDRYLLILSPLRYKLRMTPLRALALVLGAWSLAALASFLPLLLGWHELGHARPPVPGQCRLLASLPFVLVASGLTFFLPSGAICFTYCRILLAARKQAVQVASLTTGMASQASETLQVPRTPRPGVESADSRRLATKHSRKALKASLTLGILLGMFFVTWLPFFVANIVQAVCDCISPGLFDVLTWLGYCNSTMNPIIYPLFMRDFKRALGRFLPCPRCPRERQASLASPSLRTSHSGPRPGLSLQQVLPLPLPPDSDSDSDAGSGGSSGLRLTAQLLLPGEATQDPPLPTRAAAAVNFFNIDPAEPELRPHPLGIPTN

As to `NC(=O)[C@@H]1CCCc2cc(Sc3cccc(F)c3)ccc21` [Example 6, (R)-6-(3-Fluoro-phenylsulfanyl)-1,2,3,4-tetrahydro-naphthalene-1-carboxylic acid amide], the melting point was 131.9 to 132.6 °C.

`CC(=O)NC[C@@H]1CCCc2cc(S(=O)(=O)c3ccccc3)cc(F)c21` [N-((R)-6-Benzenesulfonyl-8-fluoro-1,2,3,4-tetrahydro-naphthalen-1-ylmethyl)-acetamide] had a melting point of 152.5 to 153.8 °C. Besides, in series [1], the Ki is 0.178 nM.

Turning to `NC(=O)NC[C@@H]1CCCc2cc(S(=O)(=O)c3cccc(F)c3)ccc21` [[(R)-6-(3-Fluoro-phenylsulfonyl)-1,2,3,4-tetrahydro-naphthalen-1-ylmethyl]-urea], the Ki in series [1] was 0.1 nM. With `NC(=O)NC[C@@H]1CCCc2cc(S(=O)(=O)c3cccc(F)c3)cc(F)c21` [[(R)-8-Fluoro-6-(3-fluoro-benzenesulfonyl)-1,2,3,4-tetrahydro-naphthalen-1-ylmethyl]-urea], the melting point lay within 193.5 to 194.4 °C. The Ki in series [1] was 0.158 nM.

As a reminder, the melting point is the temperature, or range, at which the solid turns liquid.
